Measured values: ChEMBL document CHEMBL1201862, “PubChem BioAssay data set” (2004)
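Protocol summary: plate cells (96-well), add compound at 5 concentrations, incubate 48 h, interpolate endpoints linearly. The concentration for 50% growth inhibition is given as GI50.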 Calls of active or inactive are those of the source. Cut-off read from the data, not from the text of the source: active = GI50 up to about 1.1 µM and inactive = higher.

Tests used:
Experiment in all cases: DTP human tumour cell line panel, 48 h
786-0 = tested on: 786-0
ACHN = tested on: ACHN
CCRF-CEM = tested on: CCRF-CEM
HCT-116 = tested on: HCT-116
HT-29 = tested on: HT-29
IGROV-1 = tested on: IGROV-1
K562 = tested on: K562
Malme-3M = tested on: Malme-3M
NCI-H460 = tested on: NCI-H460
OVCAR-5 = tested on: OVCAR-5
OVCAR-8 = tested on: OVCAR-8
SK-OV-3 = tested on: SK-OV-3
SN12C = tested on: SN12C
SNB-75 = tested on: SNB-75
SR = tested on: SR
U-251 = tested on: U-251
OVCAR-3 = tested on: OVCAR-3

Measured: GI50

CCOP(=O)(OCC)/C(C#N)=C/c1ccco1
inactive: 786-0 > 100 µM | ACHN > 100 µM | CCRF-CEM > 100 µM | HCT-116 > 100 µM | HT-29 > 100 µM | IGROV-1 > 100 µM | K562 > 100 µM | Malme-3M > 100 µM | NCI-H460 > 100 µM | OVCAR-5 > 100 µM | OVCAR-8 > 100 µM | SK-OV-3 > 100 µM | SN12C > 100 µM | SNB-75 > 100 µM | SR > 100 µM | U-251 > 100 µM

Cn1cc2c(n1)c(N/N=C/c1ccccc1)nn1nnnc21
inactive: 786-0 > 100 µM | ACHN > 100 µM | CCRF-CEM > 100 µM | HCT-116 > 100 µM | HT-29 > 100 µM | IGROV-1 > 100 µM | K562 > 100 µM | Malme-3M > 100 µM | NCI-H460 > 100 µM | OVCAR-3 > 100 µM | OVCAR-8 > 100 µM | SK-OV-3 > 100 µM | SN12C > 100 µM | SNB-75 > 100 µM | SR > 100 µM | U-251 > 100 µM

N=C(N)N/N=C(/c1nc2ccc([N+](=O)[O-])cc2[nH]c1=O)C(O)c1ccc([N+](=O)[O-])cc1 (stereo unspecified)
inactive: 786-0 > 100 µM | ACHN 21.3 µM | CCRF-CEM > 100 µM | HCT-116 > 100 µM | HT-29 54.1 µM | IGROV-1 > 100 µM | K562 > 100 µM | Malme-3M 83.8 µM | NCI-H460 51.3 µM | OVCAR-3 94.2 µM | OVCAR-5 > 100 µM | OVCAR-8 > 100 µM | SK-OV-3 > 100 µM | SN12C > 100 µM | SNB-75 86.1 µM | SR > 100 µM | U-251 67.3 µM

COC(=O)NN=C1C(C)(C)C(=O)C1(C)C
inactive: 786-0 > 100 µM | ACHN > 100 µM | CCRF-CEM > 100 µM | HCT-116 > 100 µM | HT-29 > 100 µM | IGROV-1 > 100 µM | K562 > 100 µM | Malme-3M > 100 µM | NCI-H460 > 100 µM | OVCAR-3 > 100 µM | OVCAR-5 > 100 µM | OVCAR-8 > 100 µM | SK-OV-3 > 100 µM | SNB-75 > 100 µM | U-251 > 100 µM

O=C1C2Nc3ccccc3SC2C(=O)N1c1ccccc1C(F)(F)F (stereo unspecified)
inactive: 786-0 25.2 µM | ACHN 40.3 µM | CCRF-CEM 15.2 µM | HCT-116 24.5 µM | HT-29 26.4 µM | IGROV-1 54.1 µM | K562 3.99 µM | Malme-3M 19.7 µM | NCI-H460 32.7 µM | OVCAR-3 22.3 µM | OVCAR-5 > 100 µM | OVCAR-8 33.7 µM | SK-OV-3 23.7 µM | SN12C 27.2 µM | SR 32.7 µM | U-251 19.1 µM

CC1(C)OC(=O)C(C#N)=C1/C=C/c1coc2ccc(Cl)cc2c1=O
inactive: 786-0 37.2 µM | CCRF-CEM 17.7 µM | HCT-116 33 µM | HT-29 > 10 µM | IGROV-1 58.3 µM | K562 27.5 µM | Malme-3M 26.2 µM | NCI-H460 18.8 µM | OVCAR-3 18.4 µM | OVCAR-5 45.1 µM | OVCAR-8 25.7 µM | SK-OV-3 19.4 µM | SN12C 30.1 µM | SNB-75 14.9 µM | SR 31.5 µM | U-251 34.4 µM

CC(=O)OC1[C@H]2c3cc4c(cc3CN3CCC(C[C@@H]1OC(C)=O)C23)OCO4 (stereo partly specified)
inactive: 786-0 > 75 µM | ACHN > 75 µM | CCRF-CEM > 75 µM | HCT-116 > 75 µM | HT-29 > 75 µM | IGROV-1 > 75 µM | K562 > 75 µM | Malme-3M > 75 µM | NCI-H460 > 75 µM | OVCAR-3 > 75 µM | OVCAR-8 > 75 µM | SK-OV-3 > 75 µM | SN12C > 75 µM | SNB-75 > 75 µM | SR > 75 µM | U-251 > 75 µM

COc1cccc(NC(=O)CC(=O)N2NC(c3ccccc3)C(/N=N/c3cccc(C(=O)O)c3)C2=O)c1 (stereo unspecified)
inactive: 786-0 > 100 µM | ACHN > 100 µM | HCT-116 > 100 µM | HT-29 > 100 µM | IGROV-1 > 100 µM | Malme-3M > 100 µM | NCI-H460 > 100 µM | OVCAR-3 38.2 µM | OVCAR-5 > 100 µM | OVCAR-8 > 100 µM | SK-OV-3 > 100 µM | SN12C > 100 µM | SNB-75 > 100 µM | SR 55.2 µM | U-251 > 100 µM

COC(=O)/C=C1\CCC2[C@@H](C(=O)CC3[C@]2(C)CCC[C@@]3(C)C(=O)OC)C1C (stereo partly specified)
inactive: 786-0 31.3 µM | ACHN 22.5 µM | CCRF-CEM 9.2 µM | HCT-116 18.5 µM | HT-29 24 µM | IGROV-1 24.6 µM | K562 15 µM | Malme-3M 21.1 µM | NCI-H460 15.7 µM | OVCAR-3 22.7 µM | OVCAR-5 33 µM | OVCAR-8 15.1 µM | SK-OV-3 37.9 µM | SN12C 24.8 µM | SNB-75 18.5 µM | U-251 33.3 µM

Fc1cccc(F)c1C1SCc2nc3ccccc3n21 (stereo unspecified) [THIAZOLOBENZIMIDAZOLE]
inactive: 786-0 > 100 µM | ACHN > 100 µM | CCRF-CEM 52.4 µM | HCT-116 65.2 µM | HT-29 62.7 µM | IGROV-1 80.9 µM | K562 36.5 µM | Malme-3M 55.5 µM | NCI-H460 47.3 µM | OVCAR-3 47.4 µM | OVCAR-5 85.9 µM | OVCAR-8 77.8 µM | SK-OV-3 > 100 µM | SN12C > 100 µM | SNB-75 > 100 µM | U-251 > 100 µM

O=c1c2ccccc2nc(-c2ccccc2)n1NC(=S)Nc1cccc(Cl)c1
inactive: 786-0 68.1 µM | ACHN > 100 µM | CCRF-CEM > 100 µM | HCT-116 95.7 µM | HT-29 > 100 µM | IGROV-1 > 100 µM | K562 > 100 µM | Malme-3M > 100 µM | NCI-H460 > 100 µM | OVCAR-5 > 100 µM | OVCAR-8 > 100 µM | SK-OV-3 40.4 µM | SN12C > 100 µM | SNB-75 28.4 µM | SR > 100 µM | U-251 43.8 µM

O=C(CSc1nnc(Cc2ccccc2)o1)Nc1ccc([N+](=O)[O-])cc1
inactive: 786-0 > 100 µM | ACHN > 100 µM | CCRF-CEM > 100 µM | HCT-116 > 100 µM | HT-29 48 µM | IGROV-1 > 100 µM | K562 40.2 µM | Malme-3M > 100 µM | NCI-H460 > 100 µM | OVCAR-3 > 100 µM | OVCAR-5 > 100 µM | OVCAR-8 > 100 µM | SK-OV-3 > 100 µM | SN12C > 100 µM | SNB-75 > 100 µM | U-251 > 100 µM
